Source: publication PMC7515921, “MFSD7C switches mitochondrial ATP synthesis to thermogenesis in response to heme” (Nature Communications, 2020)

Target: T1, MFSD7C (major facilitator superfamily domain containing 7C; FLVCR2; SLC49A2) (Homo sapiens, UniProt Q9UPI3)
T1 construct: N-terminal domain (NTD), amino acids 1–84
T1 sequence (Q9UPI3 1-84): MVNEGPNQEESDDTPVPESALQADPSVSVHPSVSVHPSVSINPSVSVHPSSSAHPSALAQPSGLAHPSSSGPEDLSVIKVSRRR
Assay: ITC with purified NTD; also heme absorbance-shift (Soret/Q band) and gel-filtration co-elution
Format: binding

C=CC1=C(C)C2=Cc3c(C=C)c(C)c4[n]3[Fe][n]3c(c(C)c(CCC(=O)O)c3=CC3=NC(=C4)C(C)=C3CCC(=O)O)=CC1=N2 [heme]
Kd: ~1000 nM
